One assay has as its system A549. The assay is described as follows: Anticancer activity against human A549 cells assessed as reduction in cell growth incubated for 48 hrs by MTT assay. It is filed as functional, cell-based. The following applies: A549, 48 h. On the technique in general: Tetrazolium dyes change colour on reduction, which living cells bring about.
The next assay concerns HaCaT. The assay is described as follows: Cytotoxic activity against human HaCaT cells assessed as reduction in cell growth incubated for 48 hrs by MTT assay. It is filed as cell-based.
The test system of a further assay is HeLa. Kind of assay: Anticancer activity against human HeLa cells assessed as reduction in cell growth incubated for 48 hrs by MTT assay. It is filed as functional, cell-based.
The next assay deals with MCF7. Kind of assay: Anticancer activity against human MCF7 cells assessed as reduction in cell growth incubated for 48 hrs by MTT assay. The format is functional, cell-based. The following applies: MCF7, 48 h.

Usually IC50 stands for the point on the concentration scale where inhibition reaches its midpoint. On to `COc1ccc2[nH]c(-c3cn(-c4ccccc4)nc3-c3ccc(F)cc3)nc2c1`, for which the IC50 with A549 is 1.96 µM; in the assay on HaCaT, above 50 µM; in the assay with HeLa, 7.51 µM; in the assay with MCF7 it was 0.97 µM.
For `Fc1ccc2[nH]c(-c3cn(-c4ccccc4)nc3-c3ccc(Cl)cc3)nc2c1`, in that order: 4.61 µM, above 50 µM, 2.77 µM and 2.83 µM.
As to `COc1ccc(-c2nn(-c3ccccc3)cc2-c2nc3cc(C)c(C)cc3[nH]2)cc1`, the IC50 in the assay with A549 stood at 5.85 µM; in the assay with HaCaT, 21.4 µM; in the assay with HeLa, 8.93 µM; in the assay on MCF7, 12.8 µM.
Consider `Fc1ccc(-c2nn(-c3ccccc3)cc2-c2nc3cc(C(F)(F)F)ccc3[nH]2)cc1`, for which the IC50 was 2.34 µM with A549, above 50 µM with HaCaT, 3.52 µM in the assay on HeLa and 2.13 µM with MCF7.
On the same counts, the results for `Fc1ccc(-c2nn(-c3ccccc3)cc2-c2nc3cc4ccccc4cc3[nH]2)cc1` are 21.5 µM, above 50 µM, 23.6 µM and 9.24 µM.
For `COc1ccc(-c2nn(-c3ccccc3)cc2-c2nc3cc4ccccc4cc3[nH]2)cc1`, the IC50 is 11.9 µM with A549, above 50 µM in the assay with HaCaT, 12.4 µM in the assay with HeLa and 7.46 µM with MCF7.
On the same counts, the results for `Clc1ccc(-c2nn(-c3ccccc3)cc2-c2nc3cc(Br)ccc3[nH]2)cc1` are 2.17 µM, above 50 µM, 2.16 µM and 1.92 µM.
Regarding `Fc1ccc(-c2nn(-c3ccccc3)cc2-c2nc3ccccc3[nH]2)cc1`, the IC50 is 1.51 µM with A549, above 50 µM with HaCaT, 2.33 µM in the assay on HeLa and 3.2 µM with MCF7.
On to `Fc1ccc(-c2nn(-c3ccccc3)cc2-c2nc3cc(Cl)c(Cl)cc3[nH]2)cc1`, for which the IC50 stood at 15.7 µM in the assay with A549, 44.6 µM in the assay on HaCaT, 11.6 µM in the assay on HeLa and 6.93 µM in the assay on MCF7.
For `Cc1ccc2[nH]c(-c3cn(-c4ccccc4)nc3-c3ccccc3)nc2c1`, the IC50 is 3.61 µM with A549, above 50 µM in the assay with HaCaT, 6.56 µM in the assay with HeLa and 5.94 µM in the assay on MCF7.
For `Cc1cc2nc(-c3cn(-c4ccccc4)nc3-c3ccccc3)[nH]c2cc1C`, in that order: 14.5 µM, above 50 µM, 41.5 µM and above 50 µM.
For `Clc1ccc2[nH]c(-c3cn(-c4ccccc4)nc3-c3ccccc3)nc2c1`, in that order: 2.37 µM, above 50 µM, 3.48 µM and 1.96 µM.
On the same counts, the results for `O=c1[nH]cc(F)c(=O)[nH]1` [FLUOROURACIL] are 2.13 µM, 15.3 µM, 4.6 µM and 2.36 µM.
Take `O=Cc1cn(-c2ccccc2)nc1-c1ccc(F)cc1`: the IC50 is 8.66 µM in the assay on A549, above 50 µM in the assay on HaCaT, 16.6 µM in the assay with HeLa and 24.8 µM in the assay with MCF7.
On the same counts, the results for `COc1ccc2[nH]c(-c3cn(-c4ccccc4)nc3-c3ccccc3)nc2c1` are 1.23 µM, above 50 µM, 2.87 µM and 1.59 µM.
On the same counts, the results for `Cc1cc2nc(-c3cn(-c4ccccc4)nc3-c3ccc(Cl)cc3)[nH]c2cc1C` are 17.7 µM, above 50 µM, 21.8 µM and 13 µM.
On the same counts, the results for `Fc1ccc(-c2nn(-c3ccccc3)cc2-c2nc3cc(Br)ccc3[nH]2)cc1` are 5.83 µM, 21.8 µM, 4.94 µM and 3.21 µM.
For `FC(F)(F)c1ccc2[nH]c(-c3cn(-c4ccccc4)nc3-c3ccccc3)nc2c1`, the IC50 in the assay on A549 was 5.93 µM; in the assay with HaCaT it was 37.2 µM; with HeLa it was 1.92 µM; in the assay on MCF7, 2.66 µM.
For `COc1ccc(-c2nn(-c3ccccc3)cc2-c2nc3cc(C)ccc3[nH]2)cc1`, in that order: 5.07 µM, above 50 µM, 3.29 µM and 6.61 µM.
With `Clc1ccc(-c2nn(-c3ccccc3)cc2-c2nc3cc(Cl)c(Cl)cc3[nH]2)cc1`, the half-inhibitory concentration (IC50) in the assay on A549 is 19.1 µM; with HaCaT, above 50 µM; with HeLa, 12.1 µM; with MCF7, 48.3 µM.
On the same counts, the results for `COc1ccc(-c2nn(-c3ccccc3)cc2-c2nc3cc(Cl)c(Cl)cc3[nH]2)cc1` are 7.33 µM, above 50 µM, 6.6 µM and 13.2 µM.
For `c1ccc(-c2nn(-c3ccccc3)cc2-c2nc3ccccc3[nH]2)cc1`, in that order: 2.71 µM, above 50 µM, 1.55 µM and 3.19 µM.
For `COc1ccc(-c2nn(-c3ccccc3)cc2-c2nc3cc(OC)ccc3[nH]2)cc1`, in that order: 22.7 µM, above 50 µM, 1.14 µM and 3.13 µM.
With `Clc1cc2nc(-c3cn(-c4ccccc4)nc3-c3ccccc3)[nH]c2cc1Cl`, the IC50 in the assay with A549 came to 11.1 µM; in the assay with HaCaT it was 29.7 µM; in the assay on HeLa, 13.4 µM; in the assay on MCF7 it was 7.56 µM.
For `COc1ccc2[nH]c(-c3cn(-c4ccccc4)nc3-c3ccc(Cl)cc3)nc2c1`, in that order: 2.42 µM, above 50 µM, 3.63 µM and 1.76 µM.
As for `Clc1ccc(-c2nn(-c3ccccc3)cc2-c2nc3ccccc3[nH]2)cc1`, the IC50 was 5.96 µM with A549, above 50 µM in the assay on HaCaT, 1.65 µM in the assay on HeLa and 3.03 µM in the assay on MCF7.
For `COc1ccc(-c2nn(-c3ccccc3)cc2-c2nc3cc(C(F)(F)F)ccc3[nH]2)cc1`, in that order: 4.82 µM, above 50 µM, 2.76 µM and 5.73 µM.
On the same counts, the results for `Cc1ccc2[nH]c(-c3cn(-c4ccccc4)nc3-c3ccc(F)cc3)nc2c1` are 1.44 µM, above 50 µM, 3.63 µM and 1.12 µM.
For `c1ccc(-c2nn(-c3ccccc3)cc2-c2nc3cc4ccccc4cc3[nH]2)cc1`, in that order: 19.3 µM, above 50 µM, 21.3 µM and 12.6 µM.
Take `COc1ccc(-c2nn(-c3ccccc3)cc2-c2nc3cc(Cl)ccc3[nH]2)cc1`: the IC50 in the assay on A549 is 3.13 µM; in the assay with HaCaT, above 50 µM; with HeLa it was 1.29 µM; with MCF7, 1.76 µM.
On to `Clc1ccc(-c2nn(-c3ccccc3)cc2-c2nc3cc4ccccc4cc3[nH]2)cc1`, for which the IC50 in the assay on A549 was 7.73 µM; in the assay with HaCaT, above 50 µM; in the assay with HeLa it was 8.13 µM; in the assay on MCF7, 13.9 µM.
For the molecule `Fc1ccc(-c2nn(-c3ccccc3)cc2-c2nc3cc(Cl)ccc3[nH]2)cc1`, the IC50 with A549 is 1.32 µM; in the assay with HaCaT, above 50 µM; with HeLa, 2.77 µM; in the assay with MCF7, 2.23 µM.
On the same counts, the results for `Cc1cc2nc(-c3cn(-c4ccccc4)nc3-c3ccc(F)cc3)[nH]c2cc1C` are above 50 µM, above 50 µM, 10.2 µM and 27.2 µM.
For `FC(F)(F)c1ccc2[nH]c(-c3cn(-c4ccccc4)nc3-c3ccc(Cl)cc3)nc2c1`, in that order: 3.36 µM, 41.8 µM, 4.42 µM and 4.21 µM.
On the same counts, the results for `Cc1ccc2[nH]c(-c3cn(-c4ccccc4)nc3-c3ccc(Cl)cc3)nc2c1` are 4.64 µM, above 50 µM, 5.36 µM and 8.23 µM.
In the case of `O=Cc1cn(-c2ccccc2)nc1-c1ccc(Cl)cc1`, the IC50 in the assay on A549 was 29.5 µM; in the assay with HaCaT, above 50 µM; in the assay on HeLa it was 15.5 µM; in the assay with MCF7 it was 9.65 µM.
On the same counts, the results for `COc1ccc(-c2nn(-c3ccccc3)cc2-c2nc3cc(Br)ccc3[nH]2)cc1` are 6.37 µM, above 50 µM, 1.06 µM and 1.83 µM.
Regarding `Fc1ccc2[nH]c(-c3cn(-c4ccccc4)nc3-c3ccccc3)nc2c1`, the IC50 was 1.72 µM in the assay on A549, above 50 µM in the assay on HaCaT, 3.61 µM with HeLa and 2.43 µM with MCF7.
On the same counts, the results for `COc1ccc(-c2nn(-c3ccccc3)cc2-c2nc3cc(F)ccc3[nH]2)cc1` are 1.98 µM, above 50 µM, 1.74 µM and 1.51 µM.
As for `COc1ccc(-c2nn(-c3ccccc3)cc2-c2nc3ccccc3[nH]2)cc1`, the IC50 in the assay on A549 was 2.36 µM; with HaCaT it was above 50 µM; in the assay on HeLa, 3.67 µM; in the assay on MCF7, 2.54 µM.

The record behind these values is ChEMBL document CHEMBL3612055, “Design, synthesis and biological evaluation of 1,3-diphenyl-1H-pyrazole derivatives containing benzimidazole skeleton as potential anticancer and apoptosis inducing agents” (Eur J Med Chem, 2015).
